Reference: US9879325B2, “Method for predicting the responsiveness a patient to a treatment with an anti-CD20 antibody” (ASSISTANCE PUBLIQUE—HÔPITAUX DE PARIS, priority 2014, dated 2018)

How the values were obtained:
DLBCL patients = test: Overall survival of DLBCL patients by gapdh mRNA level; format: in vivo, human
Source text: Thirteen patients who underwent biopsy for DLBCL between May 2007 and May 2011 at the Saint-Louis Hospital (Department of Onco-hematology, Hopital Saint-Louis, Paris, France) were selected. The patients received the necessary information concerning the study and consent was obtained. Morphologic classification of the tumors was assigned according to the World Health Organization (WHO) criteria (Campo et al., 2011). The tumors extensions were staged according to the Ann Arbor stage, and all patients were scored by IPIaa (project, 1993). Follow-up data for all the patients were collected regularly. Among these patients, 8 relapsed (61.5%) and 6 (46%) died.
Data are expressed as mean±standard deviation (SD). Differences in the calculated mean between each group were analyzed using Fisher test (quantitative variable). Survival functions were estimated by the Kaplan-Meier method and compared by the log-rank test. A P value of 0.05 or less was considered to indicate statistical significance. Kaplan-Meier survival curves and box plot representations were performed using “R” software.
[…] was measured from the date of diagnosis to that of death from any cause or to the stopping date. When the latter date was not reached, the data were censored at the date of the last follow-up evaluation. […]

GAPDH = test: Measurement of GAPDH activity; format: biochemical; conditions: non-toxic doses
Protocol: Cells were lysed in a buffer containing 10 mmol/L HEPES (pH 7.4), 150 mmol/L NaCl, 5 mmol/L EDTA, 1% NP40, 10 μg/mL aprotinin, 1 mmol/L phenylmethylsulfonyl fluoride and 10 mmol/L leupeptin (buffer A). Lysates were standardized for protein content and incubated with 0.25 mmol/L NAD, 3.3 mmol/L DTT, 13 mmol/L Na4P2O7 (pH 8.5), 26 mmol/L sodium arsenate, and 25 mmol/L D-glyceraldehyde-3-phosphate in a black 96-well plate (Cellstar). GAPDH activity was measured on a fluoroscan at 445 nm as the increase in fluorescence related to NADH accumulation. Activity is expressed as the change in absorbance per milligram of protein.

HIF-1 = HIF-1 activity luciferase assay; format: cell-based; conditions: non-toxic doses; hypoxia
Protocol: HIF-1 activity. HeLa cells stably expressing the p3HRE-Dptk-LUC vector, which contain three copies of the hypoxia-responsive element (HRE) from the erythropoietin gene (Dayan et al., 2006), were transiently transfected (calcium phosphate) with control vector (pMIG or empty pSUPER vector) or vectors (2 μg) to either overexpress or to silence GAPDH. The following day, transfected cells were exposed to normoxia or hypoxia 1% O2 for 24 hours before cell lysis in a reporter lysis buffer (Promega). It is worth noting that for determination of HIF-1 activity in hypoxia, cells were directly lysed in the hypoxic chamber). The luciferase assay was performed as previously described (Jacquin et al., 2013).

HIF-1α = HIF-1α protein expression (Western blot); format: cell-based; conditions: non-toxic doses; hypoxia
Protocol: Briefly, after exposure to normoxia or hypoxia, cells were washed and lysed in laemmli buffer. Cells exposed to hypoxia were lysed in the hypoxic chamber. Proteins (40 μg) were separated on 8% to 12% SDS polyacrilamide gels and transferred onto polyvinylidene difluoride membranes (Millipore). Membranes were then blotted with antibody corresponding to the indicated proteins. Immunoreactive bands were detected with a horseradish peroxidase (HRP) anti-mouse (Dako) or anti-rabbit (Cell Signaling) by enhanced chemiluminescence (Pierce). When indicated, Western blot quantification was made using ImageJ software.

NF-κB [1] = test: Electrophoretic mobility shift assay (EMSA) of NF-κB binding in Raji cells; format: cell-based, human; conditions: hypoxia 1% O2 24 hours, 0.2 μg/ml
Protocol: Total cell extracts from Raji cells treated or not with 0.2 μg/ml of KA and exposed to normoxia or hypoxia 1% O2 for 24 hours were prepared as previously described (Bottero et al., 2003). For mobility shift assay, a NF-κB probe consisting of a synthetic double stranded oligonucleotide containing the KB binding site of the Igκ promoter was used. The end-labeled probe (T4 kinase) was incubated with extracts samples for 20 minutes at 30° C. Complexes were separated by electrophoresis on a 5% non-denaturating polyacrylamide gel in 0.5×TBE. Dried gels were subjected to autoradiography.

NF-κB [2] = test: NF-κB activity luciferase assay; format: cell-based
Protocol: HeLa cells stably expressing GAPDH-V5 or GAPDH double mutant (DM-V5) control (pMIG) were transiently co-transfected by the classical calcium phosphate method with 0.5 μg of a vector encoding cFP and 2 μg of a luciferase reporter gene controlled by a minimal tk promoter ans sex reiterated KB sites (icBx6 tk luc). Forty-eight hours after transfection, cells were exposed to either normoxia or hypoxia 1% O2 for 24 hours before harvesting and analyzing as previously described (Bottero et al., 2003).

GAPDH-TRAF2 interaction = test: GAPDH-TRAF2 co-immunoprecipitation in cells cultured in hypoxia; format: cell-based; conditions: Eμ-Myc and HeLa cells
Protocol: (§1) Protein G Sepharose 4B beads (Invitrogen, CA, USA) were first incubated with rabbit anti-TRAF2 or mouse anti-GAPDH antibody or IgG control (Santacruz, Calif., USA) for 4 hours at 4° C. Beads were then incubated overnight with 1 mg of precleared protein lysed in 20 mM Tris-HCl, pH 7.4, 137 mM NaCl, 1 mM EGTA, 10% glycerol, 1% Triton X-100, 1.5 mM MgCl2, 1 μg/μl PMSF, protease and phosphatase inhibitor cocktail (Thermo Scientific). Samples were then washed five times, boiled in Laemmli buffer and analyzed by immunoblotting with the indicated antibodies

GAPDH/TRAF2 interaction = target: T1, GAPDH/TRAF2 interaction (Mus musculus, UniProt P16858); test: GAPDH/TRAF2 co-immunoprecipitation in tissues of Eμ-Myc bearing mice; format: in vivo; conditions: 24 hours after treatment
T1 construct: from tissue; lymph node tumors are collected elsewhere in the text
Protocol: as §1, with “Consequently, we investigated GAPDH-TRAF2 binding in Eμ-Myc and HeLa cells and evidenced that GAPDH could be co-immunprecipitated with TRAF2 when cells are cultured in hypoxia. […] We further tested this interaction in vivo. For that matter Eμ-Myc bearing mice were treated once with PBS or with the covalent inhibitor koningic acid (i.p) and GAPDH/TRAF2 interaction was investigated by co-immunoprecipation in tissues, 24 hours after treatment. […] Protein” for “Protein”

hif-1α mRNA = hif-1α mRNA in vivo (qPCR); set-up: species or system mouse; conditions: 5 mg/kg
Protocol: Consequently, we investigated GAPDH-TRAF2 binding in Eμ-Myc and HeLa cells and evidenced that GAPDH could be co-immunprecipitated with TRAF2 when cells are cultured in hypoxia. […] We further tested this interaction in vivo. For that matter Eμ-Myc bearing mice were treated once with PBS or with the covalent inhibitor koningic acid (i.p) and GAPDH/TRAF2 interaction was investigated by co-immunoprecipation in tissues, 24 hours after treatment.
(§2) Total RNA was extracted from cells using the RNA extraction kit (Qiagen) according to the manufacturer's instructions. Total RNA (2 μg) was added to 20 μl reverse transcription-PCR using the Omniscript kit (Qiagen). The relative mRNA expression level of gapdh, hif-1α, ca9, vegf-α, ldh-a (mouse and human) were obtained by real-time quantification PCR (qPCR), using the TaqMan PCR Master Mix (Eurogentec) and TaqMan assay primer set (Applied Biosystems, Foster City, Calif.) on the 7500 Fast and the Step One (Applied Biosystems) according to the manufacturer's instructions (sequences provided upon request). For in vitro experiment, all samples were normalized to rplp0. All mRNA samples from human tumor tissues were normalized by ppia (cyclophilin-a).

[3] = tested on: ms4a1 (CD20 encoding gene); test: ms4a1 expression in lymphoma bearing mice; set-up: species or system mouse; conditions: in vivo inhibition of GAPDH
Protocol: To get deeper into the mechanism of CD20 expression, we observed that upon 24 hours of hypoxia, primary Eμ-Myc cells are showing a 2-fold increase in mRNA level of ms4a1 when compared to normoxia. […] We then confirmed the effects of hypoxia on CD20 cell surface expression using the human Burkitt's lymphoma cell line Raji.
as §2

[4] = tested on: CD20 cell surface expression; test: CD20 cell surface expression by flow cytometry in Raji cells; format: cell-based, human; conditions: hypoxia 1% O2 48 h, non-toxic doses (0.1 μg/ml)
Protocol: Cells (0.5·10^6) cells (in triplicate) were washed 1×PBS and incubated at 4° C. with the monoclonal anti-CD20 (Affymetrix eBioscience) at a concentration of 2.5 μg/ml for 45 minutes. IgG isotypic controls were included. Cells were then washed 2×PBS and incubated at 4° C. for 30 minutes in the dark with a anti-mouse Alexa 488 (1 μg/ml). Then cells were washed twice in PBS and resuspend in 100 μl of PBS containing 0.5 μg/ml of DAPI (4′,6-diamidino-2-phenylindole). Ten thousand events were analyzed immediately by flow cytometry using a MACSQuant Analyzer (Miltenyi Biotec). The mean fluorescence intensity (MFI) obtained for lived (DAPI negative) CD20 positive cells was reported. Histograms represent the average of three independent experiments.
A total of 1×10^6 cells were washed in PBS and incubated for 45 minutes at 4° C. with the monoclonal anti-CD20 antibody (2.5 μg/ml) (Affymetrix eBioscience). The cells were then washed in PBS and incubated at 4° C. for 30 minutes with an anti-mouse Alexa Fluor 488 (1 μg/ml). […] After washing twice in the saponine-containing buffer, the cells are resuspended in PBS/2% FCS and analyzed by flow cytometry. Immediately afterwards, 10,000 events were analyzed by flow cytometry using a MACSQuant Analyzer (Miltenyi Biotec). The mean fluorescence intensity (MFI) obtained for CD20-low, CD20-high, GAPDH-low, GAPDH-high cells, was reported.

T1 sequence (P16858 whole entry): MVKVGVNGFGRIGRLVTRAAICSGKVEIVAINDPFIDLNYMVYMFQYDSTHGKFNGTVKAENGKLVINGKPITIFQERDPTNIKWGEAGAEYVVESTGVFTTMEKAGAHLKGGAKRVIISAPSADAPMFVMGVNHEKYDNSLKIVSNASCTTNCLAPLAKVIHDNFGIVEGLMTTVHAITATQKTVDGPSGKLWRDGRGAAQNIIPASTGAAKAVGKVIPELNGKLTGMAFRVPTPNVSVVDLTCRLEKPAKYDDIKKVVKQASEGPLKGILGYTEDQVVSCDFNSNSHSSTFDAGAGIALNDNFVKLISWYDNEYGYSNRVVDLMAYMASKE

Row | Molecule | patients still alive 350 days following the diagnosis (DLBCL patients; "low" gapdh group) [%] | patients still alive 350 days following the diagnosis (DLBCL patients; DLBCL with "high" levels of gapdh mRNA) [%] | reduction of GAPDH activity (GAPDH) | HIF-1 activity (HIF-1) | HIF-1α expression (HIF-1α) | NF-κB binding to its consensus sequence (NF-κB [1]) | NF-κB transcriptional activity (NF-κB [2]; hypoxic HeLa cells) | NF-κB activity (NF-κB [2]; specific and partial inhibition of GAPDH in hypoxia) | GAPDH-TRAF2 interaction (GAPDH-TRAF2 interaction) | GAPDH/TRAF2 interaction in vivo (GAPDH/TRAF2 interaction; 0.5 mg/kg i.p. once) | GAPDH/TRAF2 interaction in vivo (GAPDH/TRAF2 interaction; 5 mg/kg i.p. once) | hif-1α mRNA in vivo (hif-1α mRNA) | ms4a1 expression [3] | hypoxic-dependent increase in CD20 cell surface expression [4]
1 | Rituximab-based chemotherapy: anti-CD20 monoclonal antibody rituximab given with chemotherapy to DLBCL patients upon diagnosis | 33 | 100 |  |  |  |  |  |  |  |  |  |  |  | 
2 | CC(C)[C@H]1CC[C@@]2(CO2)[C@H]2C(=O)OCC(C(=O)O)=C[C@H]12 [Koningic acid] |  |  | 50-60% | decrease in HIF-1 activity | decrease | reduced its binding in hypoxia | prevented NF-κB transcriptional activity | decreases NF-κB activity | loss of GAPDH-TRAF2 interaction | inactive dose | reduced the interaction | reduced hif-1α mRNA | reduction in ms4a1 expression | prevented this hypoxic-dependent increase in CD20 expression
